Laboratory results from patent US10632095B2 (Zoetis Services LLC, priority 2013, dated 2020).
pIC50: −log10 of the molar value. Like-named read-outs stand apart in the source and are kept apart here.

Columns and labels:
swine COX-2 = swine COX-2 (Sus scrofa, UniProt Q8SPR3); experiment: Porcine alveolar macrophage COX inhibitor assay (PGE2 read-out); format: cell-based; settings: for IC90: read-out: COX-2 IC90
Method: (§1) Alveolar macrophages were treated with a lipopolysaccharide (LPS), in the presence of varying amounts of inhibitors, to produce thromboxane B2 (TXB2) and/or prostaglandin E2 (PGE2). […] Each drug was tested in three different experiments on three different days (at a minimum).

bovine COX-2 = target: T1, bovine COX-2 (Bos taurus, UniProt O62698); experiment: Bovine in vitro whole blood COX inhibitor assay (PGE2); format: cell-based
T1 construct: using a bovine whole blood assay; from tissue; host or cells: heparinized bovine whole blood, LPS-treated
T1 sequence (O62698 18-604): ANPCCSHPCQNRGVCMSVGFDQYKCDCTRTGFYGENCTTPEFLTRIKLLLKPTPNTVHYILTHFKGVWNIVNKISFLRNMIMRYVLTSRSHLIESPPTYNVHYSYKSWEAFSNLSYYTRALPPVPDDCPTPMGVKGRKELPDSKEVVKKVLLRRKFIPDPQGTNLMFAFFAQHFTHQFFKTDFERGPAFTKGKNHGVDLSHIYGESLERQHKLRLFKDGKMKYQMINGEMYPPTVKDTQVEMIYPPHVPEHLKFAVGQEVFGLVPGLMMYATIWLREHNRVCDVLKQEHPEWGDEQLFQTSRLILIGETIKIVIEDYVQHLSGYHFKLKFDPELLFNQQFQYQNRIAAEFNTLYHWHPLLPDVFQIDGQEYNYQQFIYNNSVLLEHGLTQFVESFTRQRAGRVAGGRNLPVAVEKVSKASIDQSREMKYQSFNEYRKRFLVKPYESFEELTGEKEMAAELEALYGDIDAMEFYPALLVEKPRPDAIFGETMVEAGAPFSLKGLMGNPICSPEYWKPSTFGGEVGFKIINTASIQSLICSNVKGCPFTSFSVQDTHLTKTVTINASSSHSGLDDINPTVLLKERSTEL
Method: (§2) Briefly, heparinized blood was collected for both assays. The COX-1 assay involved treatment of the blood with protamine; to reverse the anti-coagulation effects of heparin; thus, inducing clotting and production of Thromboxane B2 (TXB2). The COX-2 assay involved treatment of blood with LPS to produce PGE2. Both assays included the presence of varying amounts of inhibitors, to inhibit the TXB2 or PGE2. […] Percent inhibition was calculated from the raw data for each drug dose based on the mean of the TXB2 or PGE2 concentrations. Then the mean % inhibition curves (% inhibition versus drug concentration) were analyzed via non-linear regression to yield individual IC50 and IC90 values.

bovine COX-1 = target: T2, bovine COX-1 (Bos taurus, UniProt O62664); experiment: Bovine in vitro whole blood COX inhibitor assay (TXB2); format: cell-based
T2 construct: using a bovine whole blood assay; from tissue; host or cells: heparinized bovine whole blood, protamine-treated to induce clotting
T2 sequence (O62664 25-600): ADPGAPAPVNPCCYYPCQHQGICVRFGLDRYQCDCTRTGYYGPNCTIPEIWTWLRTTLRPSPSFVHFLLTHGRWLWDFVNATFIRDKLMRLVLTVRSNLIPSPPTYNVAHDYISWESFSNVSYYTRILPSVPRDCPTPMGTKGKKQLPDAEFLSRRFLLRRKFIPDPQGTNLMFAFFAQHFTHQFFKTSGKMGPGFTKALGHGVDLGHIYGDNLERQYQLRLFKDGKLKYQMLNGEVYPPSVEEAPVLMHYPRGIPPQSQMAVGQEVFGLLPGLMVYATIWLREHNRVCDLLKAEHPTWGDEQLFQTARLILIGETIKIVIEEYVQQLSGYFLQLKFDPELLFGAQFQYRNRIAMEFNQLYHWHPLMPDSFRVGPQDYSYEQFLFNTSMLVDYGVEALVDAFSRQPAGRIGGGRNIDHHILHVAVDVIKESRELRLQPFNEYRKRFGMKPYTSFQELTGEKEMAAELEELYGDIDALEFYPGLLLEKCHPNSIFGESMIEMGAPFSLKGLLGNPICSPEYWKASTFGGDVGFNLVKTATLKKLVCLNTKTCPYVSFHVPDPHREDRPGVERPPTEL
Method: as §2

swine COX-1 = swine COX-1 (Sus scrofa, UniProt A0A287ANF9); experiment: Porcine alveolar macrophage COX inhibitor assay (TXB2 read-out); format: cell-based; settings: for IC90: read-out: COX-1 IC90
swine COX-1, sequence (A0A287ANF9 25-600): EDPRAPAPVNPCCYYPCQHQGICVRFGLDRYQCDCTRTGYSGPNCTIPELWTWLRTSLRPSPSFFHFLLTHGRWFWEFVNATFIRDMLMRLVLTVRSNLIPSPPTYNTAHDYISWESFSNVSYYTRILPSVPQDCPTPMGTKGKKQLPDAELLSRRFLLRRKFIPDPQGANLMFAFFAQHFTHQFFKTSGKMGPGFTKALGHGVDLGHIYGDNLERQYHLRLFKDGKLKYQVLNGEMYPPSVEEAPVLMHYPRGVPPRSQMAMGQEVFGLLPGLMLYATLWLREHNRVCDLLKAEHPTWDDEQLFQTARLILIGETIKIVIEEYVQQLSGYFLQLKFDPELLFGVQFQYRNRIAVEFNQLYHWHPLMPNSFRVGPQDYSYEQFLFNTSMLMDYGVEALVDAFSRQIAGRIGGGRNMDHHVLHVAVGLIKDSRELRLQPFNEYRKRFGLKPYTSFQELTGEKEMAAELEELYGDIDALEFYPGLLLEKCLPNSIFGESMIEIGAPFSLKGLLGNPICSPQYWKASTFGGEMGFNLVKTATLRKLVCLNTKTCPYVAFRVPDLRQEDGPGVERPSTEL
Method: as §1

bradykinin = settings: Julou 1976; cited from earlier work
LPS-induced lameness = experiment: LPS-induced swine synovitis model; format: in vivo; settings: validation study, 2.2 mg/kg, IM
[1] = system: swine influenza virus (SIV)-induced fever; format: in vivo
[2] = Hydrolysis in swine plasma; format: in vitro ADME
[3] = Hydrolysis in swine liver microsomes; format: in vitro ADME
[4] = read-out: COX-2 IC50, LPS-treated porcine alveolar macrophages, PGE2 by ELISA, 21-24 hours incubation
[5] = read-out: COX-1 IC50, LPS-treated porcine alveolar macrophages, TXB2 by ELISA, 21-24 hours incubation
[6] = LPS-treated porcine alveolar macrophages, PGE2 by ELISA, 21-24 hours incubation, read-out: COX-2 IC50
[7] = LPS-treated porcine alveolar macrophages, PGE2 by ELISA, 21-24 hours incubation
[8] = LPS-treated porcine alveolar macrophages, TXB2 by ELISA, 21-24 hours incubation, read-out: COX-1 IC50
[9] = LPS-treated porcine alveolar macrophages, TXB2 by ELISA, 21-24 hours incubation

swine COX-2, sequence (Q8SPR3 entry or part of it): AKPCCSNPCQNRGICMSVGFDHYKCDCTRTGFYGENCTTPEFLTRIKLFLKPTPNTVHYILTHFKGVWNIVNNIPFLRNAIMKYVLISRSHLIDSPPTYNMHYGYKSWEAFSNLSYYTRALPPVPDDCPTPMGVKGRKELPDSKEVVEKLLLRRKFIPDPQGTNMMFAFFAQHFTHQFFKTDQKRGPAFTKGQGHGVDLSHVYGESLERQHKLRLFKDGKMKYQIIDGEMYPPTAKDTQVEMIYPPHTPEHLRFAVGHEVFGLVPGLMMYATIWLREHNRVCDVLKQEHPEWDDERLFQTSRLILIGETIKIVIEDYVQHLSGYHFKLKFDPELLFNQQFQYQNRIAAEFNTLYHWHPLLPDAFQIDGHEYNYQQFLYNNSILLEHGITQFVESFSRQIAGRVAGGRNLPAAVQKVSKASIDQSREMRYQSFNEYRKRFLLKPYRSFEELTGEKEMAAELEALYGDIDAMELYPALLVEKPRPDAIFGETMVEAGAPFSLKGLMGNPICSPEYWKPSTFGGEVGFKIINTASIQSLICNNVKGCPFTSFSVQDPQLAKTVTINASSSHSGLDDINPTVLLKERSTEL

Structure (SMILES)	pIC50 (swine COX-2; [4])	IC90 (swine COX-2) [nM]	pIC50 (swine COX-1; [5])	IC90 (swine COX-1) [nM]	pIC50 (swine COX-1; [8])	hydrolysis in swine plasma [2]	hydrolysis in swine liver microsomes [3]	also measured
CC(C(=O)O)c1cccc(C(=O)c2ccccc2)c1 (racemic) [Ketoprofen, 2-(3-benzoylphenyl)-propionic acid]	8.22	80	8.15	80	–	–	–	pIC50 (swine COX-2; read-out: IC50 against swine ortholog of COX-2, one range given for COX-1 and COX-2): 8.15 to 8.22; pIC50 (bovine COX-2; read-out: IC50 against bovine COX-2): 6.66; pIC50 (bovine COX-1): 7.52; pIC50 (swine COX-1; read-out: IC50 against swine ortholog of COX-1, one range given for COX-1 and COX-2): 8.15 to 8.22; functional bradykinin antagonist activity, effects greater than indomethacin (bradykinin): 8 times
C[C@H](C(=O)O)c1cccc(C(=O)c2ccccc2)c1 (single isomer, unassigned) [Ketoprofen (S)-enantiomer]	–	–	–	–	8.70	–	–	pIC50 (swine COX-2; [6]): 9.00; IC90 (swine COX-2; [7]): 40 nM; IC90 (swine COX-1; [9]): 60 nM
CC(C(=O)O)c1ccc2c(c1)[nH]c1ccc(Cl)cc12 (stereo not shown) [Carprofen]	5.50	39000	–	58400	5.30	–	–	–
Cc1c(Nc2ncccc2C(=O)O)cccc1C(F)(F)F [Flunixin]	–	–	7.18	–	–	–	–	pIC50 (swine COX-2; [6]): 7.48; IC90 (swine COX-2; [7]): 507 nM; reduction of LPS-induced lameness (LPS-induced lameness): effective at reducing LPS-induced lameness; IC90 (swine COX-1; [9]): 747 nM
COC(=O)C(C)c1cccc(C(=O)c2ccccc2)c1 (stereo not shown) [Formula 1, methyl 2-(3-benzoylphenyl)propanoate]	6.89	840	6.59	1680	–	moderately or slowly	hydrolyzed rapidly	potency relative to Meloxicam (swine COX-2; swine COX, Table 1): about 5 times; pIC50 (bovine COX-2): 6.54; IC90 (bovine COX-2; read-out: IC90 COX-2): 2290 nM; pIC50 (bovine COX-1): 6.30; IC90 (bovine COX-1; read-out: IC90 COX-1): 3100 nM; anti-pyretic activity continues through (post-dose) ([1]; 6 mg/kg IM in Miglyol 812): ≥ 72 h; activity compared with vehicle at t=35 hours (11 hours post-dose) ([1]; Formula 1 4, 5, 6 mg/kg IM, Banamine 2.2 mg/kg IM): remained active; fever reduction compared with vehicle ([1]; young gilts, in Miglyol 812, 4, 5, 6 mg/kg IM, 24 hours after SIV, all timepoints from 1 hour post-dose): significantly reduced fever; onset of anti-pyretic efficacy post-dose ([1]; young gilts, in Miglyol 812, 4, 5 and 6 mg/kg IM): 1 h
CCOC(=O)C(C)c1cccc(C(=O)c2ccccc2)c1 (stereo not shown) [Formula 2, ethyl 2-(3-benzoylphenyl)propanoate]	–	–	–	–	–	moderately or slowly	hydrolyzed rapidly	–
CC(C(=O)OCCNC(=O)c1cccnc1)c1cccc(C(=O)c2ccccc2)c1 (stereo not shown) [Formula 3, 2-(nicotinamido)ethyl 2-(3-benzoylphenyl)propanoate]	6.92	930	6.82	4860	–	moderately or slowly	hydrolyzed rapidly	–
Cc1cnc(NC(=O)C2=C(O)c3ccccc3S(=O)(=O)N2C)s1 [Meloxicam]	6.25	9000	–	49300	5.99	–	–	–
